Results on 30 molecules are retold here after patent publication US20100292205A1, “Pyrimidone Compounds As GSK-3 Inhibitors” (PFIZER INC., priority 2006, published 2010).

pIC50: −log10 of the molar value.

T1 sequence (P49841 whole entry): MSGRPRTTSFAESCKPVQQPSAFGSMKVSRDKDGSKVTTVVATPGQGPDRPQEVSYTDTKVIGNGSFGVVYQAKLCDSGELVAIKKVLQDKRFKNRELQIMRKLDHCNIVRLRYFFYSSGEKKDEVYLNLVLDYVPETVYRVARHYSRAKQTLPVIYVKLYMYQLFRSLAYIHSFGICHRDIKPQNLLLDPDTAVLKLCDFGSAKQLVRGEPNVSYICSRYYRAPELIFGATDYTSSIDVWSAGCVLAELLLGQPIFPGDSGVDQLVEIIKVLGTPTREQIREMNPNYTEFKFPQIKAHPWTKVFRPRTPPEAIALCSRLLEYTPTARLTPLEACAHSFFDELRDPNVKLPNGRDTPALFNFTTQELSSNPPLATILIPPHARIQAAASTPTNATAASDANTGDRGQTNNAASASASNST

The first experiment has as its target T1, Recombinant human GSK3β (Homo sapiens, UniProt P49841).
T1 construct: His-tag; made in house; host or cells: Sf9 insect cells / baculovirus
The experiment can be described thus: GSK-3β (Glycogen Synthase Kinase) cell free enzyme assay. Type of experiment: biochemical. The conditions noted are these: 1 μM; Examples 236-262. Here is the method: Assay Protocol for GSK-3β (Glycogen Synthase Kinase) in a Cell Free Enzyme Assay
Recombinant human GSK3β was expressed in SF9/Baculo virus cells. His-tag protein was purified by affinity chromatography to a Ni-NTA Superflow column. Enzyme activity was assayed as the incorporation of [33P] from the gamma phosphate of [33P]ATP (PerkinElmer) into biotinylated peptide substrate bio-LC-S-R-H-S-S-P-H-Q-pS-E-D-E-E-E-OH (Anaspec). Reactions were carried out in a buffer containing 8 mM MOPS (pH 7.0), 10 mM Magnesium Acetate, 0.2 mM EDTA, 1 mM DTT and 2 uM cold ATP. The 33P-ATP was added for 0.025 uCi/well (120 uL) and the final concentration of substrate was 1.0 uM. Enzyme was preincubated with test agent for 30 minutes at room temperature followed by initiation of the reaction by the addition of substrate mix. Incubations were carried out at RT for 60 min. Reactions were stopped by addition of 0.66 volume of buffer containing: 12.5 mM EDTA, 0.25% Triton-X 100, 125 uM ATP, and 6.2 mg/ml streptavidin coated SPA beads (Amersham) in PBS without Ca or Mg. Radioactivity associated with the beads was quantified by scintillation counting of CPM in a Trilux counter (PerkinElmer).
Examples 42 to 60 were prepared using the analogous procedure described to prepare Example 41, substituting the appropriate starting material (Examples 1 to 35) and coupling with the appropriate acid. The assay protocol used is the percent inhibition at 1 μM for GSK-3β in the cell free enzyme assay described above.
As to “2-[(1R,5S)-3-Benzyl- 38- diazabicyclo[3.2.1]oct- 8-yl]-3-methyl-6- pyridin-4-ylpyrimidin- 4(3H)-one [Example 250]”, the “Percent inhibition at 1 μM” value stood at 69%.

The experiment is the same for the next values; noted with them: 1 μM; GSK-3β cell free enzyme assay; Examples 42-60.
As to “2-{[(3a,S5,S7,aR)-1- Acetyl-3a- methyloctahydro-1H- indol-5- yl](methyl)amino}-3- methyl-6-pyridin-4- ylpyrimidin-4(3H)-one [Example 50]”, the “Percent inhibition at 1 μM” value was 82%.

The same experiment, now with this note: cell free enzyme assay; Examples 1-35.
The pIC50 is the negative decadic logarithm of the IC50, by convention in mol/L. Consider `Cn1c(N2CC[C@@](O)(c3ccccc3)[C@H]3CCCC[C@H]32)nc(-c2ccncc2)cc1=O` [Example 1, 2-[(4S,4aS,8aR)-4-Hydroxy-4-phenyloctahydro-quinolin-1(2H)-yl]-3-methyl-6-pyridin-4-ylpyrimidin-4(3H)-one], for which the pIC50 was 9.15.
As for `Cn1c(N[C@H]2[C@@H]3CN(C(=O)OC(C)(C)C)C[C@@H]32)nc(-c2ccncc2)cc1=O` [Example 2, tert-butyl (1R,5S,6s)-6-[(1-Methyl-6-oxo-4-pyridin-4-yl-1,6-dihydropyrimidin-2-yl)amino]-3-azabicyclo[3.1.0] hexane-3-carboxylate], the pIC50 was 8.66.
Turning to `Cn1c(NCC2OCCc3ccccc32)nc(-c2ccncc2)cc1=O` (stereo not drawn) [Example 3, 2-[(3,4-dihydro-1H-Isochromen-1-ylmethyl)amino]-3-methyl-6-pyridin-4-ylpyrimidin-4(3H)-one], the pIC50 was 7.64.
Turning to `CCN(C[C@@H]1CCCN1C(=O)OC(C)(C)C)c1nc(-c2ccncc2)cc(=O)n1C` [Example 4, tert-butyl (2S)-2-{[Ethyl(1-methyl-6-oxo-4-pyridin-4-yl-1,6-dihydropyrimidin-2-yl)amino]methyl} pyrrolidine-1-carboxylate], the pIC50 was 8.38.
Regarding `CCN(C[C@H]1CCCN1C(=O)OC(C)(C)C)c1nc(-c2ccncc2)cc(=O)n1C` [Example 5, tert-butyl (2R)-2-{[Ethyl(1-methyl-6-oxo-4-pyridin-4-yl-1,6-dihydropyrimidin-2-yl)amino]methyl} pyrrolidine-1-carboxylate], the pIC50 is 8.68.
Same read-out and setting: the same measure for `Cn1c(N[C@H]2[C@@H]3CN(C(=O)OC(C)(C)C)C[C@@H]32)nc(-c2ccncc2)cc1=O` [Example 6, tert-butyl (1R,5S,6s)-6-[(1-Methyl-6-oxo-4-pyridin-4-yl-1,6-dihydropyrimidin-2-yl)amino]-3-azabicyclo[3.1.0] hexane-3-carboxylate]: 8.55; for `CC1c2cccn2CCN1c1nc(-c2ccncc2)cc(=O)n1C` (stereo not drawn) [Example 7, 3-Methyl-2-(1-methyl-3,4-dihydropyrrolo[1,2-a]pyrazin-2(1H)-yl)-6-pyridin-4-ylpyrimidin-4(3H)-one]: 7.97; for `Cn1c(NC2CCCN(C(=O)OC(C)(C)C)CC2)nc(-c2ccncc2)cc1=O` (stereo not drawn) [Example 8, tert-butyl 4-[(1-Methyl-6-oxo-4-pyridin-4-yl-1,6-dihydropyrimidin-2-yl)amino]azepane-1-carboxylate]: 8.04.
`Cn1c(N[C@H]2Cc3ccccc3NC2=O)nc(-c2ccncc2)cc1=O` [Example 9, (3S)-3-[(1-Methyl-6-oxo-4-pyridin-4-yl-1,6-dihydropyrimidin-2-yl)amino]-3,4-dihydroquinolin-2(1H)-one]: the pIC50 was 7.52.
As for `CN(c1nc(-c2ccncc2)cc(=O)n1C)C1CCCN(C(=O)OC(C)(C)C)CC1` (stereo not drawn) [Example 10, tert-butyl 4-[Methyl(1-methyl-6-oxo-4-pyridin-4-yl-1,6-dihydropyrimidin-2-yl)amino]azepane-1-carboxylate], the pIC50 was 7.84.
On the same count and under the same terms, the same measure for `CN(c1nc(-c2ccncc2)cc(=O)n1C)C1CCN(C(=O)OC(C)(C)C)C1` (stereo not drawn) [Example 11, tert-butyl 3-[Methyl(1-methyl-6-oxo-4-pyridin-4-yl-1,6-dihydropyrimidin-2-yl)amino]pyrrolidine-1-carboxylate]: 7.75.
Consider `Cn1c(N2[C@@H]3CC[C@H]2CN(C(=O)OC(C)(C)C)C3)nc(-c2ccncc2)cc1=O` [Example 12, tert-butyl (1R,5S)-8-(1-Methyl-6-oxo-4-pyridin-4-yl-1,6-dihydropyrimidin-2-yl)-3,8-diazabicyclo[3.2.1] octane-3-carboxylate], for which the pIC50 is 7.49.
On the same count and under the same terms, the same measure for `CCN(c1nc(-c2ccncc2)cc(=O)n1C)C1CCN(C(=O)OC(C)(C)C)C1` (stereo not drawn) [Example 13, tert-butyl 3-[Ethyl(1-methyl-6-oxo-4-pyridin-4-yl-1,6-dihydropyrimidin-2-yl)amino]pyrrolidine-1-carboxylate]: 7.78; for `Cn1c(NC[C@H]2CCN(C(=O)OC(C)(C)C)C2)nc(-c2ccncc2)cc1=O` [Example 14, tert-butyl (3R)-3-{[(1-Methyl-6-oxo-4-pyridin-4-yl-1,6-dihydropyrimidin-2-yl)amino]methyl} pyrrolidine-1-carboxylate]: 7.13.
`CCN(c1nc(-c2ccncc2)cc(=O)n1C)C1CCCN(C(=O)OC(C)(C)C)CC1` (stereo not drawn) [Example 15, tert-butyl 4-[Ethyl(1-methyl-6-oxo-4-pyridin-4-yl-1,6-dihydropyrimidin-2-yl)amino]azepane-1-carboxylate]: the pIC50 is 7.51.
The same measure, in the same setting: the same measure for `Cn1c(N2[C@@H]3CC[C@H]2CC(n2cnc4ccccc42)C3)nc(-c2ccncc2)cc1=O` (stereo partly drawn) [Example 16, 2-[(1R,5S)-3-(1H-Benzimidazol-1-yl)-8-azabicyclo[3.2.1]oct-8-yl]-3-methyl-6-pyridin-4-ylpyrimidin-4(3H)-one]: 7.69; for `Cn1c(N[C@H]2CN(C(=O)OC(C)(C)C)C[C@@H]2F)nc(-c2ccncc2)cc1=O` [Example 17, tert-butyl (3S,4S)-3-Fluoro-4-[(1-methyl-6-oxo-4-pyridin-4-yl-1,6-dihydropyrimidin-2-yl)amino]pyrrolidine-1-carboxylate]: 7.58; for `Cn1c(NCC2CCCN2C(=O)OC(C)(C)C)nc(-c2ccncc2)cc1=O` (stereo not drawn) [Example 18, tert-butyl 2-{[(1-Methyl-6-oxo-4-pyridin-4-yl-1,6-dihydropyrimidin-2-yl)amino]methyl} pyrrolidine-1-carboxylate]: 6.97.
With `Cn1c(NC2CCCN(C(=O)OC(C)(C)C)C2)nc(-c2ccncc2)cc1=O` (stereo not drawn) [Example 19, tert-butyl 3-[(1-Methyl-6-oxo-4-pyridin-4-yl-1,6-dihydropyrimidin-2-yl)amino]piperidine-1-carboxylate], the pIC50 was 7.38.
Take `Cn1c(NC2CCCCN(C(=O)OC(C)(C)C)C2)nc(-c2ccncc2)cc1=O` (stereo not drawn) [Example 20, tert-butyl 3-[(1-Methyl-6-oxo-4-pyridin-4-yl-1,6-dihydropyrimidin-2-yl)amino]azepane-1-carboxylate]: the pIC50 was 7.62.
With `Cn1c(N[C@@H]2CC[C@@H](NC(=O)OC(C)(C)C)C2)nc(-c2ccncc2)cc1=O` [Example 21, tert-butyl {(1R,3R)-3-[(1-Methyl-6-oxo-4-pyridin-4-yl-1,6-dihydropyrimidin-2-yl)amino]cyclopentyl} carbamate], the pIC50 was 7.28.
Regarding `Cn1c(N2CCc3ccccc3C2Cc2ccccc2)nc(-c2ccncc2)cc1=O` (stereo not drawn) [Example 22, 2-(1-Benzyl-3,4-dihydroisoquinolin-2(1H)-yl)-3-methyl-6-pyridin-4-ylpyrimidin-4(3H)-one], the pIC50 was 7.43.
`CN(c1nc(-c2ccncc2)cc(=O)n1C)[C@H]1CC[C@H]2NCC[C@@]2(C)C1` [Example 23, 3-methyl-2-{Methyl[(3aS,5S,7aR)-3a-methyloctahydro-1H-indol-5-yl]amino}-6-pyridin-4-ylpyrimidin-4(3H)-one]: the pIC50 is 7.33.
As to `Cn1c(NC2CCN(C(=O)OC(C)(C)C)C2)nc(-c2ccncc2)cc1=O` (stereo not drawn) [Example 24, tert-butyl 3-[(1-Methyl-6-oxo-4-pyridin-4-yl-1,6-dihydropyrimidin-2-yl)amino]pyrrolidine-1-carboxylate], the pIC50 was 7.37.
As for `Cn1c(N2CCN(C(=O)OC(C)(C)C)[C@@H]3CCCC[C@H]32)nc(-c2ccncc2)cc1=O` [Example 25, tert-butyl (4aR,8aR)-4-(1-Methyl-6-oxo-4-pyridin-4-yl-1,6-dihydropyrimidin-2-yl)octahydroquinox-aline-1(2H)-carboxylate], the pIC50 is 7.40.
Still for that read-out and setting: the same measure for `Cn1c(N2CC[C@@H]3CN(C(=O)OC(C)(C)C)C[C@@H]32)nc(-c2ccncc2)cc1=O` [Example 26, tert-butyl (3aR,6aR)-1-(1-Methyl-6-oxo-4-pyridin-4-yl-1,6-dihydropyrimidin-2-yl)hexahydropyrrolo [3,4-b]pyrrole-5(1H)-carboxylate]: 7.01; for `Cn1c(NC2(c3cccc(C(C)(C)C)c3)CCOCC2)nc(-c2ccncc2)cc1=O` [Example 27, 2-{[4-(3-tert-Butylphenyl)tetra-hydro-2H-pyran-4-yl]amino}-3-methyl-6-pyridin-4-ylpyrimidin-4(3H)-one]: 7.92.
As for `COc1cccc2c1CC[C@@H](Nc1nc(-c3ccncc3)cc(=O)n1C)[C@H]2C` [Example 28, 2-{[(1S,2R)-5-Methoxy-1-methyl-1,2,3,4-tetrahydronaphthalen-2-yl]amino}-3-methyl-6-pyridin-4-ylpyrimidin-4(3H)-one], the pIC50 was 8.41.
